Measurements taken from patent USRE48461E1, “Modulation of androgen receptor expression” (Ionis Pharmaceuticals, Inc., priority 2012, dated 2021).
Oligonucleotides are written 5' to 3', each unit as a sugar letter and its base; * is a phosphorothioate linkage, no mark a phosphodiester; rarer units and linkages stand in square brackets, end groups in braces. Plain capitals give the bases only. k = constrained ethyl (cEt); [5mC] = 5-methylcytosine; d = 2'-deoxy (DNA)

Columns and labels:
[1] = cynomolgus monkey, in vivo, sc, 40 mg/kg
Method: (§4) Prior to the study, the monkeys were kept in quarantine for a 30-day period, during which the animals were observed daily for general health. The monkeys were 2-4 years old and weighed between 2 and 4 kg. Thirteen groups of four randomly assigned male cynomolgus monkeys each were injected subcutaneously with ISIS oligonucleotide or PBS. PBS solution or ISIS oligonucleotides, at a dose of 40 mg/kg, were administered with a loading regimen consisting of four doses on the first week of the study (days 1, 3, 5, and 7), followed by a maintenance regimen consisting of once weekly administration starting on Day 14 (weeks 2 to 6). Subcutaneous injections were performed in clock-wise rotations at 4 sites on the back; one site per dose. The injection sites were delineated by tattoo, while sedated using ketamine, and were separated by a minimum of 3 cm.
To evaluate the effect of ISIS oligonucleotides on the overall health of the animals, body and organ weights were measured.

[2] = cynomolgus monkey, in vivo, sc, 40 mg/kg; remark: listed apart in the source
Method: as §4
To evaluate the effect of ISIS oligonucleotides on hepatic function, the monkeys were fasted overnight. Approximately, 1.5 mL of blood samples were collected on day 44 from all the study groups. Blood was collected in tubes without anticoagulant for serum separation. The tubes were kept at room temperature for a minimum of 90 min and then centrifuged at 3,000 rpm for 10 min. Levels of various liver function markers were measured using a Toshiba 120FR NEO chemistry analyzer (Toshiba Co., Japan).

[3] = cynomolgus monkey, in vivo, sc, 40 mg/kg; remark: listed apart in the source
Method: as §4
To evaluate any effect of ISIS oligonucleotides in cynomolgus monkeys on hematologic parameters, blood samples of approximately 0.5 mL of blood was collected day 44 from each of the available study animals in tubes containing K2-EDTA. Samples were analyzed for red blood cell (RBC) count, white blood cells (WBC) count, platelet count, hemoglobin content and hematocrit, using an ADVIA2120i hematology analyzer (SIEMENS, USA).

[4] = cynomolgus monkey, in vivo, sc, 40 mg/kg; remark: listed apart in the source
[5] = cynomolgus monkey, in vivo, sc, 40 mg/kg; remark: listed apart in the source
[6] = cynomolgus monkey, in vivo, sc, 40 mg/kg; remark: listed apart in the source
[7] = tested on: full-length AR; experiment: Western blot of full-length AR in MDV3100-resistant C4-2B cells; assay type: cell-based, human; conditions: C4-2B MR cells (Example 16)
Method: ISIS 549372, ISIS 549434, and ISIS 554221 at 1 μM concentration of antisense oligonucleotide were each added to the culture media at 1 μM concentration for free uptake by the cells. After a treatment period of 2 days, cells were harvested in RIPA buffer containing protease inhibitors. The presence of bands for full-length AR, as well as the variant form, AR-V7, was detected by western blot using AR antibody (N-20, Santa Cruz).
Western analysis of full-length AR, as well as the AR-V7 variant, was also conducted in a manner similar to the assay described above.

[8] = tested on: total AR mRNA; experiment: Total (full-length) AR mRNA in C4-2B MR cells, free uptake; assay type: cell-based, human; conditions: C4-2B MR cells, 0.04-5.00 μM free uptake, 24 hrs
Method: Cells were plated at a density of 40,000 cells per well in 96-well plates and cultured in RPMI1640 medium with 10% fetal bovine serum. […] ISIS 549372, ISIS 549458, ISIS 549434, and ISIS 554221 were each added at 0.04 μM, 0.20 μM, 1.00 μM, and 5.00 μM concentrations of antisense oligonucleotide to culture media for free uptake by the cells. […] After a treatment period of 24 hrs, total AR mRNA levels were measured by quantitative real-time PCR using primer probe set RTS3559.

[9] = tested on: KLK3 mRNA; experiment: KLK3 mRNA (AR target gene) in C4-2B MR cells; assay type: cell-based, human; conditions: C4-2B MR cells, 0.04-5.00 μM
[10] = tested on: KLK2 mRNA; experiment: KLK2 mRNA (AR target gene) in C4-2B MR cells; assay type: cell-based, human; conditions: C4-2B MR cells, 0.04-5.00 μM
[11] = tested on: C4-2B MR cells; experiment: Proliferation of MDV3100-resistant C4-2B cells (CellTiter 96); assay type: cell-based, human; conditions: 0.04-5.00 μM, 6 days
Method: ISIS 549372, ISIS 549434, ISIS 549458, and ISIS 554221 were each added to the culture media at 0.04 μM, 0.20 μM, 1.00 μM, and 5.00 μM concentration of antisense oligonucleotide. ISIS 347526 was included as a negative control. After a treatment period of 6 days, the proliferative capacity of the cancer cells was measured with using CellTiter 96® AQueous One Solution Cell Proliferation kit (Promega), following the manufacturer's instructions. Results are presented in Table 41 as percent inhibition of proliferation, relative to non-treated cells.

[12] = tested on: AR full-length mRNA; experiment: AR full-length mRNA in CWR22-RV1 cells (RNAiMax, RTS3559); assay type: cell-based, human; conditions: 6 days
Method: (§1) CWR22-RV1 cells were plated and transfected using RNAiMax reagent (Life Technologies) with ISIS oligonucleotides at 1.7 nM, 5.0 nM, 16.7 nM, or 50 nM concentrations. ISIS 347526 was included as a negative control. After a treatment period of 6 days, the target reduction and proliferative capacity of the cancer cells was measured.
(§2) Antisense inhibition of AR full-length mRNA was measured with the RTS3559 primer probe set. The results are presented in Table 63 as percent inhibition relative to non-treated cells. The reduction in V7 splice variant of the AR mRNA was also measured by RT-PCR using SYBR Green staining (Hu, R. et al., Cancer Res. 2009. 69: 16-22). The results are presented in Table 64, as percent reduction, relative to non-treated cells. Cell proliferation was measured with CellTiter 96® AQueous One Solution Cell Proliferation kit (Promega), following the manufacturer's instructions. Results are presented in Table 65 as percent inhibition of proliferation, relative to non-treated cells.

[13] = tested on: V7 splice variant of the AR mRNA; experiment: AR V7 splice variant mRNA in CWR22-RV1 cells (RT-PCR SYBR Green); assay type: cell-based, human; conditions: RNAiMax, 6 days
Method: as §1, §2

[14] = tested on: CWR22-RV1 cells; experiment: CWR22-RV1 cell proliferation (CellTiter 96); assay type: cell-based, human; conditions: RNAiMax, 6 days
Method: as §1, §2

[15] = tested on: AR mRNA; experiment: AR mRNA in C4-2B cells by free uptake (hAR_LTS00943); assay type: cell-based, human; conditions: 24 hrs; for Percent inhibition of AR full-length mRNA: free uptake
Method: (§3) Cells were plated at a concentration of 1,000 cells/well in 96-well plates to measure cell proliferation, and at 4,000 cells/well to measure target reduction. ISIS 549458, ISIS 549372, ISIS 549434, and ISIS 554221 were added individually at 0.04 μM, 0.20 μM, 1.00 μM, or 5.00 μM. After an incubation period of 24 hrs, mRNA levels were measured using hAR_LTS00943.

[16] = tested on: C4-2B cells; experiment: C4-2B cell proliferation by free uptake (MTT); assay type: cell-based, human; conditions: day 6
Method: as §3
On day 6, cells plated for measuring proliferation were incubated with MTT reagent until the development of color. Color intensity was measured using a spectrophotometer at 490 nm.

[17] = tested on: testosterone; experiment: Serum testosterone levels in cynomolgus monkeys (ELISA); assay type: in vivo; conditions: cynomolgus monkey, 40 mg/kg subcutaneously
Method: Serum testosterone protein levels were measured in the plasma with an ELISA kit (Enzo Life Sciences), following the manufacturer's instructions.

[18] = cynomolgus monkey, in vivo; for Oligonucleotide concentration, Kidney / Oligonucleotide concentration, Liver: sc, 40 mg/kg

ISIS 584149: antisense compound targeted to human AR (GTCAATATCAAAGCAC; 3-10-3 (S)-cEt gapmer, further chemistry not given here)
Body Wt [1]: 2.5 kg
Heart weight [1]: 9.3 g
Kidney weight [1]: 13 g
Liver weight [1]: 60 g
Mesenteric lymph nodes weight [1]: 2.1 g
Spleen weight [1]: 2.2 g
ALT [2]: 57 IU/L
AST [2]: 58 IU/L
Albumin [2]: 4.5 g/dL
HCT [3]: 45%
Hemoglobin [3]: 13.7 g/dL
Platelets [3]: 478000 µL
RBC [3]: 5.7e+06 µL
WBC [3]: 11300 µL
Plasma BUN [4]: 26.4 mg/dL
Plasma Creatinine [4]: 0.85 mg/dL
Urine protein/creatinine ratio [5]: 0.01
C3 (% of baseline) [6]: 110 % of baseline
CRP [6]: 1.7 mg/dL

CTAAACTTCCCGTGGC (k[5mC]*kT*kA*dA*dA*d[5mC]*dT*dT*d[5mC]*d[5mC]*d[5mC]*dG*dT*kG*kG*k[5mC]) [ISIS 549434, targets 3'-end of exon 8]
levels of full-length AR (Western analysis) [7]: reduced levels of full-length AR
total AR transcript levels [8]: reduced total AR transcript levels in a dose dependent manner more extensively than treatment with ISIS 554221
AR target gene KLK3 mRNA levels [9]: reduced target gene levels in a dose dependent manner more extensively than treatment with ISIS 554221
AR target gene KLK2 mRNA levels [10]: reduced target gene levels in a dose dependent manner more extensively than treatment with ISIS 554221
proliferation of C4-2B MR cells [11]: reduced proliferation of the cells in a dose dependent manner more extensively than treatment with ISIS 554221
Percent inhibition of AR full-length mRNA ([12]; dose 5.0 nM): 46%
Percent inhibition of AR full-length mRNA ([12]; dose 16.7 nM): 69%
Percent inhibition of AR full-length mRNA ([12]; dose 50.0 nM): 86%
Percent inhibition of AR splice variant, V7 ([13]; dose 5.0 nM): 20%
Percent inhibition of AR splice variant, V7 ([13]; dose 16.7 nM): 4%
Percent inhibition of AR splice variant, V7 ([13]; dose 50.0 nM): 23%
Percent inhibition of cell proliferation ([14]; dose 5.0 nM): 15%
Percent inhibition of cell proliferation ([14]; dose 16.7 nM): 13%
Percent inhibition of cell proliferation ([14]; dose 50.0 nM): 38%
AR mRNA expression ([15]; free uptake 0.04-5.00 μM): inhibited AR mRNA expression more potently than ISIS 554221
Percent inhibition of AR full-length mRNA ([15]; dose 0.04 μM): 10%
Percent inhibition of AR full-length mRNA ([15]; dose 0.20 μM): 35%
Percent inhibition of AR full-length mRNA ([15]; dose 1.00 μM): 52%
Percent inhibition of AR full-length mRNA ([15]; dose 5.00 μM): 55%
Percent inhibition of cell proliferation ([16]; dose 0.04 μM): 0%
Percent inhibition of cell proliferation ([16]; dose 0.20 μM): 14%
Percent inhibition of cell proliferation ([16]; dose 1.00 μM): 35%
Percent inhibition of cell proliferation ([16]; dose 5.00 μM): 37%

ISIS 584163: antisense compound targeted to human AR (GAACATTATTAGGCTA; 3-10-3 (S)-cEt gapmer, further chemistry not given here)
Body Wt [1]: 2.5 kg
Heart weight [1]: 8.4 g
Kidney weight [1]: 15 g
Liver weight [1]: 54 g
Mesenteric lymph nodes weight [1]: 3.3 g
Spleen weight [1]: 3.2 g
ALT [2]: 50 IU/L
AST [2]: 68 IU/L
Albumin [2]: 4.2 g/dL
HCT [3]: 44%
Hemoglobin [3]: 12.8 g/dL
Platelets [3]: 461000 µL
RBC [3]: 5.5e+06 µL
WBC [3]: 9100 µL
Plasma BUN [4]: 22.4 mg/dL
Plasma Creatinine [4]: 0.82 mg/dL
Urine protein/creatinine ratio [5]: 0.01
C3 (% of baseline) [6]: 102 % of baseline
CRP [6]: 1.0 mg/dL

ISIS 584468: antisense compound targeted to human AR (CATTGTACTATGCCAG; 3-10-3 (S)-cEt gapmer, further chemistry not given here)
Serum testosterone level [17]: 13.6 ng/mL
Body Wt [1]: 2.5 kg
Heart weight [1]: 8.3 g
Kidney weight [1]: 13 g
Liver weight [1]: 60 g
Mesenteric lymph nodes weight [1]: 3.8 g
Spleen weight [1]: 4.1 g
ALT [2]: 46 IU/L
AST [2]: 52 IU/L
Albumin [2]: 4.0 g/dL
HCT [3]: 45%
Hemoglobin [3]: 13.5 g/dL
Platelets [3]: 408000 µL
RBC [3]: 5.9e+06 µL
WBC [3]: 11100 µL
Plasma BUN [4]: 22.2 mg/dL
Plasma Creatinine [4]: 0.78 mg/dL
Urine protein/creatinine ratio [5]: 0.00
C3 (% of baseline) [6]: 111 % of baseline
CRP [6]: 1.3 mg/dL
K/L ratio [18]: 5.2
Oligonucleotide concentration, Kidney [18]: 2441 μg/g tissue
Oligonucleotide concentration, Liver [18]: 474 μg/g tissue

TTGATTTAATGGTTGC [ISIS 579671] (cEt/MOE gapmer chemistry, further chemistry not given here)
Serum testosterone level ([17]; 40 mg/kg): 7.3 ng/mL
Body Wt [1]: 2.4 kg
Heart weight [1]: 8.8 g
Kidney weight [1]: 14 g
Liver weight [1]: 62 g
Mesenteric lymph nodes weight [1]: 2.5 g
Spleen weight [1]: 3.2 g
ALT [2]: 56 IU/L
AST [2]: 53 IU/L
Albumin [2]: 4.0 g/dL
HCT [3]: 42%
Hemoglobin [3]: 12.5 g/dL
Platelets [3]: 438000 µL
RBC [3]: 5.4e+06 µL
WBC [3]: 10000 µL
Plasma BUN [4]: 22.7 mg/dL
Plasma Creatinine [4]: 0.74 mg/dL
Urine protein/creatinine ratio [5]: 0.00
C3 (% of baseline) [6]: 101 % of baseline
CRP [6]: 4.5 mg/dL
K/L ratio [18]: 3.0
Oligonucleotide concentration, Kidney [18]: 2576 μg/g tissue
Oligonucleotide concentration, Liver [18]: 871 μg/g tissue

TGATTTAATGGTTGCA [ISIS 569221] (cEt/MOE gapmer chemistry, further chemistry not given here)
Serum testosterone level ([17]; 40 mg/kg): 8.8 ng/mL
Body Wt [1]: 2.5 kg
Heart weight [1]: 8.5 g
Kidney weight [1]: 14 g
Liver weight [1]: 68 g
Mesenteric lymph nodes weight [1]: 3.5 g
Spleen weight [1]: 3.3 g
ALT [2]: 48 IU/L
AST [2]: 73 IU/L
Albumin [2]: 4.0 g/dL
HCT [3]: 45%
Hemoglobin [3]: 12.9 g/dL
Platelets [3]: 406000 µL
RBC [3]: 5.6e+06 µL
WBC [3]: 11100 µL
Plasma BUN [4]: 20.2 mg/dL
Plasma Creatinine [4]: 0.86 mg/dL
C3 (% of baseline) [6]: 91 % of baseline
CRP [6]: 4.9 mg/dL
Oligonucleotide concentration, Kidney [18]: 1372 μg/g tissue
Oligonucleotide concentration, Liver [18]: 966 μg/g tissue
